This passage reports IC50 results from patent US12662491B2 (Redona Therapeutics, Inc., priority 2020, dated 2026).

Each structure is given as a SMILES string.

The term IC50 denotes the concentration needed to halve the response being measured.

The target in the first assay is T1, Zcchc11 enzyme (Homo sapiens, UniProt Q5TAX3).
T1 construct: made in house; host or cells: HEK293 cells (Zcchc11); E. coli Rosetta II (LIN28A)
T1 sequence (Q5TAX3 212-1420): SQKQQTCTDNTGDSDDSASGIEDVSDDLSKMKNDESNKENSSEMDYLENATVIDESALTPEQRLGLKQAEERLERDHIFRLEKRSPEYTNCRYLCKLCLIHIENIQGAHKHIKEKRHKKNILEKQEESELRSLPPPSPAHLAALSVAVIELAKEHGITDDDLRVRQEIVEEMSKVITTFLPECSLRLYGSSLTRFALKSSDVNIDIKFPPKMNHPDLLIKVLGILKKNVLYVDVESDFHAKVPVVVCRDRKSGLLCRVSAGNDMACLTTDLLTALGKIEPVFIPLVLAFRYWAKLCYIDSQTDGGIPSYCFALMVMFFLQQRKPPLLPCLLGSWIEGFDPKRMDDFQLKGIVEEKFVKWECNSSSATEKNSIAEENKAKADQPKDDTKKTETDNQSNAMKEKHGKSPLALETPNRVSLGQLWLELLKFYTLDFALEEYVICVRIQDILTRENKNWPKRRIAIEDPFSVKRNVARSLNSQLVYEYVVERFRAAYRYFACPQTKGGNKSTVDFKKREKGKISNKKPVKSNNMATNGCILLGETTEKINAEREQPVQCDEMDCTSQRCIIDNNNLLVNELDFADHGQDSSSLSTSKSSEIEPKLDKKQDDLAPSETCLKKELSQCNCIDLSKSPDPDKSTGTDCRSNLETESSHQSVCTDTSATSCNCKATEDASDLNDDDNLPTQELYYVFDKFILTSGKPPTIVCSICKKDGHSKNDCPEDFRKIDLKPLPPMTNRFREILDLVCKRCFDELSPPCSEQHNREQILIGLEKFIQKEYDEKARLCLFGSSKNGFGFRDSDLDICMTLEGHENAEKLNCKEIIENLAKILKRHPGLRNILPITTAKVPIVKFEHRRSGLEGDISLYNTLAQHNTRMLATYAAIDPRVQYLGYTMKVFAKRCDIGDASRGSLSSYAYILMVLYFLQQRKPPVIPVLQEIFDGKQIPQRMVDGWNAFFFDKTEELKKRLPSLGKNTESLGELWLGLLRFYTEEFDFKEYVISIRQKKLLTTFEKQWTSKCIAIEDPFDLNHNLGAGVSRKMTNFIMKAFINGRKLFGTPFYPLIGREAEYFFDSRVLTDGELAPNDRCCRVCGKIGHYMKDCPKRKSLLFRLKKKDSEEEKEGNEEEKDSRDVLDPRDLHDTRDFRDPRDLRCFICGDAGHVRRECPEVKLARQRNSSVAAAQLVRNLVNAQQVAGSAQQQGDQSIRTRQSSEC
Kind of assay: TUTase assay (Zcchc11 assay, Lin28a-dependent polyuridylation of pre-let-7). The format is biochemical. The conditions noted are these: LIN28A 10 nM, Zcchc11 0.2 nM, 5′-fluorescein pre-let-7 miRNA 2 nM, UTP 5 uM, room temperature, 30 minutes pre-incubation; read-out: Potency Lin28a-dep Z11 IC50. In short, it runs like this: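 Polyuridylation measured as fluorescein loss when a rhodamine-labelled A20 probe anneals to U-tails added to fluorescein pre-let-7 (2 nM). Reaction: truncated Zcchc11 0.2 nM, E. coli-made LIN28A 10 nM, UTP 5 uM, HEPES pH 7.3, room temperature. Initial rates fitted to four-parameter IC50.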
With `CN(C)C1CN(c2ccc(-n3cc(C(=O)O)c(=O)c4cc(F)c(N5C[C@H](c6cccnc6)C[C@@H]5COc5ncccc5Cl)cc43)cn2)C1` [Example 61, 7-[(2R)-2-[[(3-Chloropyridin-2-yl)oxy]methyl]-4-(pyridin-3-yl)pyrrolidin-1-yl]-1-[6-[3-(dimethylamino)azetidin-1-yl]pyridin-3-yl]-6-fluoro-4-oxoquinoline-3-carboxylic acid], the IC50 is at most 1 µM.

Still in this assay, the particulars now being: Lin28a-dependent Zcchc11 (Z11) TUTase activity; read-out: Potency Lin28a-dep Z11 IC50.
For `CN(C)C1CN(c2ccc(-n3cc(C(=O)O)c(=O)c4cc(Cl)c(N5CCC[C@@H]5COc5nc6ccn(C)c6cc5Cl)cc43)cn2)C1` [Compound 256, 6-chloro-7-[(2R)-2-[([6-chloro-1-methyl-pyrrolo [3,2-b]pyridin-5-yl]oxy)methyl]pyrrolidin-1-yl]-1-[6-[3-(dimethyl-amino)azetidin-1-yl]pyridin-3-yl]-4-oxoquinoline-3-carboxylic acid], the IC50 is at most 1 µM. For `O=C(O)c1cn(-c2ccc(O)cc2F)c2cc(N3CCC[C@@H]3COc3cccnn3)c(F)cc2c1=O` [Compound 135, (R)-6-fluoro-1-(2-fluoro-4-hydroxy-phenyl)-4-oxo-7-(2-((pyridazin-3-yloxy)methyl)pyrrolidin-1-yl)-1,4-dihydro-quinoline-3-carboxylic acid], the IC50 is at most 1 µM.

Turning to `O=C(O)c1cn(-c2ccc(O)cc2F)c2cc(N3CCC[C@@H]3COc3ccccc3)c(F)cc2c1=O` [Compound 90, (R)-6-fluoro-1-(2-fluoro-4-hydroxy-phenyl)-4-oxo-7-(2-(phenoxy-methyl)pyrrolidin-1-yl)-1,4-dihydro-quinoline-3-carboxylic acid], the IC50 is over 50 µM. Same read-out and setting: the value for `O=C(O)c1cn(-c2cnn(C3CN(CCF)C3)c2)c2cc(N3CCC[C@@H]3COc3ncccc3Cl)c(Cl)cc2c1=O` [Compound 244, 6-chloro-7-[(2R)-2-[[(3-chloropyridin-2-yl)oxy]methyl]pyrrolidin-1-yl]-1-[1-[1-(2-fluoroethyl)azetidin-3-yl]pyrazol-4-yl]-4-oxoquinoline-3-carboxylic acid] was at most 1 µM.

The same assay, now with this note: Lin28a-dependent Zcchc11 (Z11) TUTase assay; read-out: Potency Lin28a-dep Z11 IC50.
In the case of `Cc1cccnc1OC[C@H]1CCCN1c1cc2c(cc1Cl)c(=O)c(C(=O)O)cn2C1(C)CC1` [Example 460, (R)-6-chloro-1-(1-methylcyclo-propyl)-7-(2-(((3-methylpyridin-2-yl)oxy)methyl)pyrrolidin-1-yl)-4-oxo-1,4-dihydroquinoline-3-carboxylic acid], the IC50 is at most 1 µM. Take `Cn1cncc1-n1cc(C(=O)O)c(=O)c2cc(Cl)c(N3CCC[C@@H]3COc3ncccc3Cl)cc21` [Example 567, (R)-6-chloro-7-(2-(((3-chloropyridin-2-yl)oxy)methyl)pyrrolidin-1-yl)-1-(1-methyl-1H-imidazol-5-yl)-4-oxo-1,4-dihydroquinoline-3-carboxylic acid]: the IC50 is at most 1 µM. Regarding `CS(=O)(=O)Nc1ccc(-n2cc(C(=O)O)c(=O)c3cc(Cl)c(N4CCC[C@@H]4COc4ncccc4Cl)cc32)cc1` [Example 427, (R)-6-chloro-7-(2-(((3-chloropyridin-2-yl)oxy)methyl)pyrrolidin-1-yl)-1-(4-(methyl-sulfonamido)phenyl)-4-oxo-1,4-dihydroquinoline-3-carboxylic acid], the IC50 was at most 1 µM.

As for `CN(C)C1CN(c2ccc(-n3cc(C(=O)O)c(=O)c4cc(Cl)c(N5CCC[C@@]5(C)COc5ncccc5Cl)cc43)cn2)C1` [Example 639, (S)-6-chloro-7-(2-(((3-chloropyridin-2-yl)oxy)methyl)-2-methylpyrrolidin-1-yl)-1-(6-(3-(dimethylamino)azetidin-1-yl)pyridin-3-yl)-4-oxo-1,4-dihydroquinoline-3-carboxylic acid], the IC50 was at most 1 µM. For `COc1ccc(C)c(OC[C@H]2C[C@H]3C[C@H]3N2c2cc3c(cc2F)c(=O)c(C(=O)O)cn3-c2ccc(N3CC(N(C)C)C3)nc2)n1` [Example 682, 1-(6-(3-(dimethylamino)azetidin-1-yl)pyridin-3-yl)-6-fluoro-7-((1R,3R, 5R)-3-(((6-methoxy-3-methylpyridin-2-yl)oxy)methyl)-2-azabicyclo[3.1.0]hexan-2-yl)-4-oxo-1,4-dihydroquinoline-3-carboxylic acid], the IC50 was at most 1 µM. Same read-out and setting: for `O=C(O)c1cn(-c2cnccn2)c2cc(N3C[C@@H](F)C[C@H]3COc3ncccc3Cl)c(Cl)cc2c1=O` [Example 468, 6-chloro-7-[(2S,4S)-2-{[(3-chloropyridin-2-yl)oxy]methyl}-4-fluoropyrrolidin-1-yl]-4-oxo-1-(pyrazin-2-yl)-1,4-dihydroquinoline-3-carboxylic acid] the value was 10 to 50 µM; for `Cc1cccc(F)c1-n1cc(C(=O)O)c(=O)c2cc(F)c(N3CCC[C@@H]3COc3ccccn3)cc21` [Example 390, (R)-6-fluoro-1-(2-fluoro-6-methylphenyl)-4-oxo-7-(2-((pyridin-2-yloxy)methyl)pyrrolidin-1-yl)-1,4-dihydroquinoline-3-carboxylic acid], 1 to 10 µM; for `O=C(O)c1cn(-c2cnn3c2CNCC3)c2cc(N3CCC[C@@H]3COc3ncccc3Cl)c(Cl)cc2c1=O` [Example 514, (R)-6-chloro-7-(2-(((3-chloropyridin-2-yl)oxy)methyl)pyrrolidin-1-yl)-4-oxo-1-(4,5,6,7-tetrahydropyrazolo [1,5-a]pyrazin-3-yl)-1,4-dihydroquinoline-3-carboxylic acid], at most 1 µM.
